Measurements taken from ChEMBL document CHEMBL1130585, “New antifungals selected by molecular topology” (1998).
In brackets after ≈: the same amount, converted by molar mass. Values belong to the compound of their own block, whether it stands above or below them. Activity calls are given as the source filed them. The rule behind the calls is not given here.

Assays:
[1] = test system: Candida albicans; test: Compound was evaluated for inhibitory activity against Candida albicans; 2-3.2; assay type: functional
[2] = test system: Saccharomyces cerevisiae; test: Compound was evaluated for inhibitory activity against Saccharomyces cerevisiae; 2-3.2; assay type: functional
[3] = test system: Candida albicans; test: Compound was evaluated for inhibitory activity against Candida albicans; 4-6.4; assay type: functional
[4] = test system: Saccharomyces cerevisiae; test: Compound was evaluated for inhibitory activity against Saccharomyces cerevisiae; 4-6.4; assay type: functional
[5] = test system: Saccharomyces cerevisiae; test: Compound was evaluated for inhibitory activity against Saccharomyces cerevisiae; 3.2-4; assay type: functional
[6] = test system: Candida albicans; test: Compound was evaluated for inhibitory activity against Candida albicans; 3.2-4; assay type: functional
[7] = test system: Candida albicans; test: Compound was evaluated for inhibitory activity against Candida albicans; IA= Inactive; assay type: functional, organism-based
[8] = test system: Saccharomyces cerevisiae; test: Compound was evaluated for inhibitory activity against Saccharomyces cerevisiae; IA= Inactive; assay type: functional, organism-based
[9] = test system: Saccharomyces cerevisiae; test: Compound was evaluated for inhibitory activity against Saccharomyces cerevisiae; IA = Inactive; assay type: functional, organism-based
[10] = test system: Candida albicans; test: Compound was evaluated for inhibitory activity against Candida albicans; assay type: functional
[11] = test system: Saccharomyces cerevisiae; test: Compound was evaluated for inhibitory activity against Saccharomyces cerevisiae; assay type: functional
[12] = test system: Candida albicans; test: microbe, parasite or virus in culture
[13] = test system: Saccharomyces cerevisiae; test: microbe, parasite or virus in culture

- MIC [1]: 2 µg/mL (≈ 9.6 µM)
- MIC [2]: 2 µg/mL (≈ 9.6 µM)
SMILES: O=c1sc2sc(=O)sc2s1

- MIC [3]: 4 µg/mL (≈ 18.6 µM)
- MIC [4]: 4 µg/mL (≈ 18.6 µM)
SMILES: BrC1[C@H]2C[C@@H]3C[C@@H](C[C@H]1C3)C2 (some centres undefined)

- MIC [5]: 3.2 µg/mL (≈ 43.2 µM)
- MIC [6]: 3.2 µg/mL (≈ 43.2 µM)
SMILES: CCC(=O)O [PROPIONIC ACID]

- MIC [1]: 2 µg/mL (≈ 9.38 µM)
- MIC [2]: 2 µg/mL (≈ 9.38 µM)
SMILES: O=C(Nc1ccccc1)c1ccccc1O [SALICYLANILIDE]

- MIC [7]: inactive
- MIC [8]: inactive
SMILES: CC1(CBr)C2CCC1(CBr)C(=O)C2 (centres undefined)

- MIC [7]: inactive
- MIC [9]: inactive
SMILES: Cc1c(Cc2c(C)n(C)n(-c3ccccc3)c2=O)c(=O)n(-c2ccccc2)n1C

- MIC [7]: inactive
- MIC [9]: inactive
SMILES: Oc1c(I)cc(I)c2cccnc12

- MIC [10]: < 1.6 µg/mL
- MIC [11]: < 1.6 µg/mL
SMILES: [Cl-].[Cl-].c1ccc(-c2nn(-c3ccccc3)[n+](-c3ccc(-c4ccc(-[n+]5nc(-c6ccccc6)nn5-c5ccccc5)cc4)cc3)n2)cc1 [NEOTETRAZOLIUM CHLORIDE]

- MIC [7]: inactive
- MIC [8]: inactive
SMILES: Brc1sc(Br)c(Br)c1Br

SMILES: BrCCc1c[nH]c2ccccc12
- MIC [1]: 2 µg/mL (≈ 8.92 µM)
- MIC [2]: 2 µg/mL (≈ 8.92 µM)

- MIC [10]: < 1.6 µg/mL
- MIC [11]: < 1.6 µg/mL
- MIC [12]: 1.6 µg/mL (≈ 3.84 µM)
- MIC [13]: 1.6 µg/mL (≈ 3.84 µM)
SMILES: Clc1ccc(COC(Cn2ccnc2)c2ccc(Cl)cc2Cl)c(Cl)c1 (centres undefined) [MICONAZOLE]
